# Tested on: L1210 cells
# Assay: Menadione cytotoxicity (MTT, median effect analysis) and protection by sulforaphane
# Format: cell-based, mouse
# Settings: menadione 2 h
# Protocol: Mouse L1210 leukemia cells, a gift from Dr. Joseph G. Cory, East Carolina State University, Greenville, N.C., were grown in RPMI 1640 medium supplemented with 10% horse serum. All cultures were incubated in a humidified atmosphere of 5% CO2 at 37° C. Media and sera were obtained from Life Technologies (Rockville, Md.).
# All experiments were performed in 96-well microliter plates. ARPE-19 and HaCaT cells were seeded at 10,000 cells per well and grown for 24 h before addition of sulforaphane, whereas L1210 cells (5,000 cells/well) were not incubated before sulforaphane treatment. Solutions of sulforaphane (5 mM) in dimethyl sulfoxide were diluted with the cognate culture medium to provide final inducer concentrations of 0.16-5.0 μM. The final DMSO concentrations were 0.1% by volume.
# Cell viability was determined by spectroscopic measurement of the reduction of MTT (Carmichael, J., DeGraff, W. G., Gazdar, A. F., Minna, J. D. & Mitchell, J. B. (1987) Cancer Res. 47, 936-942). The culture media were discarded after the designated incubation periods, the cells were washed three times with PBS by use of a microtiter plate washer (Ultrawash Plus, Dynex Technologies, Chantilly, Va.). Each well then received 150 μl of an MTT solution (0.5 mg/ml) in serum-free medium. The plates were incubated for 2 h at 37° C., the MTT solution was discarded, 100 μl of DMSO were added to each well, and the plates were shaken at 200 rpm on an orbital shaker for 5 min. The absorbances of the wells were determined at 555 nm with a microtiter plate reader (Spectra Max Plus, Molecular Devices, Sunnyvale, Calif.). The absorbance of reduced MIT was then compared at each inducer and oxidant concentration to that of untreated control cells that received only the vehicle in which sulforaphane (DMSO) and menadione (DMSO or PBS) were dissolved. In each experiment three identical 96-well plates were used and the means of the absorbance values, the standard deviations of these means, and their coefficients of variation were calculated.
# Dose-effect analyses were performed according to the Median Effect Equation, by use of a computer program (Chou, T. C. & Hayball, M. (1996) CalcuSyn for Windows 3.1 and 95: multiple dose effect analyzer and manual for IBM-PC, Biosoft, Cambridge, U.K). The equation: fa/fu=[D/Dm]^m, where fa is the fraction of cells affected by the oxidant, fu is the fraction unaffected (i.e., 1-fa), D is the dose of oxidant required to produce the effect fa, Dm is the concentration of oxidant required to produce a 50% effect, i.e., when fa=fu, and the slope m is a measure of the sigmoidicity of the dose-response curve, and is therefore a measure of cooperativity. The results are analyzed by plotting log(fa/fu) with respect to log D of the oxidant. The computer program provides the slope (m) of the curves, and the goodness of fit (r^2) to linearity.
# [1] = after sulforaphane 0.16 μM 24 h
# [2] = after sulforaphane 0.31 μM 24 h
# [3] = after sulforaphane 0.63 μM 24 h
smiles,measurement,setting,value
C[S+]([O-])CCCCN=C=S (stereo not drawn) [Sulforaphane],Dm (median effect concentration) of menadione,[1],19.6 µM
same,m (slope of median effect plot) for menadione,[1],0.864
same,Dm (median effect concentration) of menadione,[2],26.5 µM
same,m (slope of median effect plot) for menadione,[2],1.00
same,Dm (median effect concentration) of menadione,[3],36.2 µM
same,m (slope of median effect plot) for menadione,[3],1.17

# — US8709406B2, “Prevention and treatment of oxidative stress disorders by gluthathione and phase II detoxification enzymes” (Brassica Foundation for ChemoProtection Research, priority 2001, dated 2014)
